From patent US12331033B2, “Inhibitors of SARM1” (Disarm Therapeutics, Inc., priority 2020, dated 2025)

Target: SARM1 (ARM-SAM-TIR) (Homo sapiens (Human), UniProt Q6SZW1)
Assay: ARM-SAM-TIR SARM1 IC50 assay (NADase activity, NAD+ cleavage, RapidFire MS)
Assay type: biochemical
Conditions: ARM-SAM-TIR lysate 5 μg/mL, 2 h pre-incubation, 5 μM NAD+, 2 hr room temperature
In short: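 Lysate of NRK1-HEK293T cells transfected with full-length ARM-SAM-TIR SARM1 (5 μg/mL final) pre-incubated with compound (1% DMSO) 2 h at room temperature in Dulbecco's PBS. Reaction started with 5 μM NAD+, run 2 hr at room temperature, then stopped with TCA/acetonitrile. NAD+ and ADPR quantified by RapidFire MS.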

SARM1 (ARM-SAM-TIR), sequence (Q6SZW1 other isoform, or with tags, fused parts or gaps): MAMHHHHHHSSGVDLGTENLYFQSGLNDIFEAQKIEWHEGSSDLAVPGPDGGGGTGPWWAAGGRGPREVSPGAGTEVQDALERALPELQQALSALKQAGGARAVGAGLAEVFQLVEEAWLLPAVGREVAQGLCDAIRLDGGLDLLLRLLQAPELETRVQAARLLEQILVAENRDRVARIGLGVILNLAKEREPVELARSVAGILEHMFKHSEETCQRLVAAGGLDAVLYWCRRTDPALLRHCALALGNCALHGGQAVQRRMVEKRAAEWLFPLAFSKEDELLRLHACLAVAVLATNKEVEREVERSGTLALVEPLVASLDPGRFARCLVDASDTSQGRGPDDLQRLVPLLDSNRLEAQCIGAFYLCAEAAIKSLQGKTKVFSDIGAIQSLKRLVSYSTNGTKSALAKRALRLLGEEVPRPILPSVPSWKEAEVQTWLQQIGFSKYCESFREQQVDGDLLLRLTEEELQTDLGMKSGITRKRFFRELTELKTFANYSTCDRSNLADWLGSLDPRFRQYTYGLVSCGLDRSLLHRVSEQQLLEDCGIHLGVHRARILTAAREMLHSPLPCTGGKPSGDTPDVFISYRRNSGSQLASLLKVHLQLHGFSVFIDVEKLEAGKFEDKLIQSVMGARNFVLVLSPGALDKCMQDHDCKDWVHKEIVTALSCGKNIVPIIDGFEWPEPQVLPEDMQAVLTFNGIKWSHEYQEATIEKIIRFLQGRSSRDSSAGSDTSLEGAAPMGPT

Row | Compound | IC50 [µM]
1 | O=C(CCc1ccc(F)cc1Cl)Nc1nnc(-c2ccncc2)[nH]1 [Example 113] | < 5
2 | Nc1cc(-c2n[nH]c(NC(=O)CCc3ccc(Cl)cc3)n2)ccn1 [Example 43] | < 5
3 | Cc1c(-c2ccncc2)n[nH]c1NC(=O)CN(C)c1ccc(Cl)cc1 [Example 224] | 5 to 15
4 | Cc1c(-c2ccncc2)n[nH]c1N(C)C(=O)CCc1ccc(Cl)nc1 [Example 288] | 5 to 15
5 | [2H]C([2H])(C(=O)Nc1nnc(-c2ccncc2)[nH]1)C([2H])([2H])c1ccc(Cl)nc1 [Example 8] | < 5
6 | O=C(Cc1c[nH]c2cc(Cl)ccc12)Nc1nnc(-c2ccncc2)[nH]1 [Example 35] | 5 to 15
7 | O=C(COc1ccccc1)Nc1nnc(-c2ccncc2)[nH]1 [Example 145] | > 30
8 | CC(Cc1ccccc1)C(=O)Nc1nnc(-c2ccncc2)[nH]1 (stereo not shown) [Example 95] | 5 to 15
9 | O=C(C[C@@H]1CCOc2ccccc21)Nc1nnc(-c2ccncc2)[nH]1 [Example 71] | < 5
10 | Cc1c(-c2ccncc2)n[nH]c1NC(=O)[C@H]1C[C@H](c2ccc(Cl)nc2)C1 [Example 237] | < 5
11 | O=C(CCc1ccc(Cl)s1)Nc1nnc(-c2ccncc2)[nH]1 [Example 81] | < 5
12 | O=C(C[C@@H]1CCCc2ccccc21)Nc1nnc(-c2ccncc2)[nH]1 [Example 91] | < 5
13 | Cc1c(-c2ccncc2F)n[nH]c1NC(=O)[C@H]1C[C@H](c2ccc(Cl)cc2)C1 [Example 318] | < 5
14 | Cc1c(-c2ccncc2)n[nH]c1NC(=O)CCc1nc(C2CC2)no1 [Example 251] | 5 to 15
15 | O=C(CCc1ccc(Cl)s1)Nc1cc(-c2ccncc2)[nH]n1 [Example 54] | < 5
16 | COCc1c(-c2ccncc2)n[nH]c1NC(=O)CCc1ccc(Cl)cc1 [Example 284] | < 5
17 | O=C(CCc1ccc(Cl)c(F)c1)Nc1nnc(-c2ccncc2)[nH]1 [Example 45] | < 5
18 | O=C(CC1COCc2ccccc21)Nc1nnc(-c2ccncc2)[nH]1 (stereo not shown) [Example 73] | 5 to 15
19 | N[C@@H](Cc1ccc(Cl)cc1)C(=O)Nc1nnc(-c2ccncc2)[nH]1 [Example 56] | < 5
20 | O=C(CCc1ccc(OC(F)F)cc1)Nc1nnc(-c2ccncc2)[nH]1 [Example 75] | < 5
21 | Cc1c(-c2ccncc2)n[nH]c1NC(=O)CSc1ccc(Cl)cc1 [Example 292] | < 5
22 | O=C(CC1CCc2ccccc21)Nc1nnc(-c2ccncc2)[nH]1 (stereo not shown) [Example 117] | < 5

Row | Compound | IC50 [µM]
23 | O=C(CCc1ccc(Cl)cc1)Nc1nnc(-c2ccnc(O)c2)[nH]1 [Example 33] | > 30
24 | O=C(CCc1ccc(Cl)nc1)Nc1[nH]nc(-c2ccncc2)c1C1CC1 [Example 228] | < 5
25 | CN(Cc1ccc(Cl)cc1)C(=O)Nc1nnc(-c2ccncc2)[nH]1 [Example 164] | < 5
26 | O=C(CCc1ccc(Cl)cc1)Nc1ncc(-c2ccncc2)s1 [Example 99] | 5 to 15
27 | Clc1ccc(OCCNc2nnc(-c3ccncc3)[nH]2)cc1 [Example 28] | > 30
28 | Cc1c(-c2ccncc2)n[nH]c1NC(=O)CCc1ccc(F)nc1 [Example 153] | < 5
29 | O=C(Nc1nnc(-c2ccncc2)[nH]1)[C@@H]1C[C@@H]1c1ccccc1 [Example 103] | 15 to 30
30 | O=C(CCc1ccc(Cl)cc1)Nc1[nH]nc(-c2ccnnc2)c1C1CC1 [Example 273] | < 5
31 | O=C(C[C@@H]1CCOc2cc(Cl)ccc21)Nc1cc(-c2ccnnc2)n[nH]1 [Example 207] | < 5
32 | C[C@@H](CC(=O)Nc1nnc(-c2ccncc2)[nH]1)c1ccccc1 [Example 93] | 15 to 30
33 | N#Cc1ccc(CCC(=O)Nc2cc(-c3ccncc3)n[nH]2)cc1 [Example 47] | < 5
34 | O=C(CCc1ccc(Cl)nc1)Nc1[nH]nc(-c2ccncc2)c1Cl [Example 271] | < 5
35 | O=C(CCc1ccc(Cl)cn1)Nc1nnc(-c2ccncc2)[nH]1 [Example 106] | < 5
36 | O=C(Cc1coc2cc(Cl)ccc12)Nc1nnc(-c2ccncc2)[nH]1 [Example 295] | < 5
37 | O=C(CCc1ccc(Cl)cc1)Nc1nnc(-c2ccnnc2)[nH]1 [Example 53] | < 5
38 | Cc1c(-c2ccncc2)n[nH]c1NC(=O)N1CC(c2ccccc2)C1 [Example 216] | < 5
39 | Cc1ccc(CCC(=O)Nc2[nH]nc(-c3ccncc3)c2C)cn1 [Example 306] | < 5
40 | Cc1cnccc1-c1cc(NC(=O)CCc2ccc(Cl)cc2)[nH]n1 [Example 198] | < 5
41 | Cc1cnccc1-c1n[nH]c(NC(=O)CCc2ccc(Cl)nc2)c1C [Example 322] | < 5
42 | CC1(c2c(-c3ccncc3)n[nH]c2NC(=O)CCc2ccc(Cl)nc2)CC1 [Example 310] | < 5
43 | O=C(CCc1ccc(C(F)(F)F)s1)Nc1cc(-c2ccncc2)n[nH]1 [Example 2] | < 5
44 | CC(C)(CC(=O)Nc1nnc(-c2ccncc2)[nH]1)c1ccccc1 [Example 121] | 15 to 30

Row | Compound | IC50 [µM]
45 | CCc1c(-c2ccncc2)n[nH]c1NC(=O)CN1CCCc2sccc2C1=O [Example 256] | 5 to 15
46 | O=C(CCc1ccc(O)cc1)Nc1nnc(-c2ccncc2)[nH]1 [Example 74] | > 30
47 | O=C(CCc1ccncc1)Nc1nnc(-c2ccncc2)[nH]1 [Example 112] | 15 to 30
48 | Cc1cc(-c2n[nH]c(NC(=O)CCc3ccc(Cl)cc3)n2)ccn1 [Example 42] | > 30
49 | N#Cc1cnccc1-c1nnc(NC(=O)CCc2ccc(Cl)cc2)[nH]1 [Example 225] | < 5
50 | O=C(CCc1ccc(C(F)(F)F)nc1)Nc1nnc(-c2ccncc2)[nH]1 [Example 86] | < 5
51 | O=C(Cc1ccc(Cl)cc1)Nc1nnc(-c2ccncc2)[nH]1 [Example 65] | < 5
52 | CCc1c(-c2ccncc2)n[nH]c1NC(=O)CCc1ccc(Cl)nc1 [Example 219] | < 5
53 | O=C(CCc1ccc(Cl)nc1)Nc1cc(-c2ccncc2)[nH]n1 [Example 55] | < 5
54 | O=C(CCc1cccc(F)c1)Nc1cc(-c2ccncc2)n[nH]1 [Example 14] | < 5
55 | O=C(Nc1nnc(-c2ccncc2)[nH]1)NC1CCOc2cc(Cl)ncc21 (stereo not shown) [Example 226] | < 5
56 | [2H]C([2H])(C(=O)Nc1[nH]nc(-c2ccncc2)c1C)C([2H])([2H])c1ccc(Cl)nc1 [Example 171] | < 5
57 | O=C(CCc1ccc(Cl)s1)Nc1nc(-c2ccncc2)c[nH]1 [Example 159] | < 5
58 | Cc1c(-c2ccnnc2)n[nH]c1NC(=O)CCc1ccc(Cl)c(F)c1 [Example 154] | < 5
59 | Cc1ccc(CCC(=O)Nc2[nH]nc(-c3ccncc3F)c2C)cn1 [Example 307] | < 5
60 | Cc1c(-c2ccncc2)n[nH]c1NC(=O)[C@H]1C[C@H](c2ccc(Cl)cc2)C1 [Example 182] | < 5
61 | O=C(C[C@H]1CCOc2cc(Cl)ncc21)Nc1nnc(-c2ccncc2)[nH]1 [Example 234] | < 5
62 | N#Cc1c(-c2ccncc2)c[nH]c1NC(=O)CCc1ccc(Cl)nc1 [Example 211] | < 5
63 | O=C(CCc1ccc(Cl)cc1)Nc1cc(-c2c(F)cncc2Br)n[nH]1 [Example 324] | 5 to 15
64 | [2H]C([2H])(C(=O)Nc1[nH]nc(-c2ccncc2)c1C)C([2H])([2H])c1ccc(Cl)cc1 [Example 170] | < 5
65 | NC(=O)Cc1c(-c2ccncc2)n[nH]c1NC(=O)CCc1ccc(Cl)nc1 [Example 309] | < 5
66 | O=C(Nc1nnc(-c2ccncc2)[nH]1)C1Cc2ccccc2C1 [Example 116] | 5 to 15

Row | Compound | IC50 [µM]
67 | Cc1c(-c2ccncc2)n[nH]c1NC(=O)C(O)Cc1ccc(Cl)cc1 (stereo not shown) [Example 223] | < 5
68 | O=C(CCc1ccc2ccccc2c1)Nc1nnc(-c2ccncc2)[nH]1 [Example 130] | > 30
69 | O=C(CCc1cccc(Cl)c1)Nc1nnc(-c2ccncc2)[nH]1 [Example 137] | < 5
70 | Cc1c(-c2ccncc2)n[nH]c1NC(=O)CNC(=O)CC(C)(C)C [Example 259] | 5 to 15
71 | CCOC(=O)c1c(-c2ccncc2)n[nH]c1NC(=O)CCc1ccc(Cl)cc1 [Example 187] | < 5
72 | O=C(CC1CCOc2cc(Cl)ncc21)Nc1nnc(-c2ccncc2)[nH]1 (stereo not shown) [Example 180] | < 5
73 | CC1(c2c(-c3ccnnc3)n[nH]c2NC(=O)CCc2ccc(Cl)cc2)CC1 [Example 311] | < 5
74 | [2H]C([2H])(C(=O)Nc1nnc(-c2ccncc2)[nH]1)C([2H])([2H])c1ccc(Cl)cc1 [Example 169] | < 5
75 | CC(C)(C)OC(=O)N(CC(=O)Nc1cc(-c2ccncc2)n[nH]1)c1ccc(Cl)cc1 [Example 5] | < 5
76 | Cc1c(-c2ccncc2)n[nH]c1NC(=O)[C@@H](N)Cc1ccc(Cl)cc1 [Example 201] | < 5
77 | COc1cccc(CCC(=O)Nc2nnc(-c3ccncc3)[nH]2)c1 [Example 108] | 5 to 15
78 | Cc1c(-c2ccncc2)n[nH]c1NC(=O)COc1ccc(C#N)cc1 [Example 253] | 5 to 15
79 | O=C(CCc1ccc(F)cc1)Nc1cc(-c2ccncc2)n[nH]1 [Example 37] | < 5
80 | O=C(NCc1cccc(Cl)c1)Nc1nnc(-c2ccncc2)[nH]1 [Example 160] | < 5
81 | NS(=O)(=O)c1c(-c2ccncc2)n[nH]c1NC(=O)CCc1ccc(Cl)cc1 [Example 161] | 5 to 15
82 | O=C(CCc1ccc(Cl)cc1)Nc1nnc(-c2ccncn2)[nH]1 [Example 156] | < 5
83 | O=C(CCc1ccc(Cl)cc1)Nc1nnc(-c2ccncc2)o1 [Example 100] | > 30
84 | Cc1c(-c2ccncc2)n[nH]c1NC(=O)CCc1ccc(Cl)nc1 [Example 27] | < 5
85 | O=C(Nc1nc(-c2ccncc2)n[nH]1)c1ccccc1 [Example 135] | 5 to 15
86 | CN(C)C(Cc1ccccc1)C(=O)Nc1nnc(-c2ccncc2)[nH]1 (stereo not shown) [Example 52] | > 30
87 | N#Cc1c(-c2ccncc2F)n[nH]c1NC(=O)CCc1ccc(Cl)nc1 [Example 281] | < 5
88 | Cc1c(-c2ccncc2)n[nH]c1NC(=O)C1CN(c2ccc(Cl)cc2)C1 [Example 220] | 5 to 15
